Results published in patent publication US11214594B2, “Antimicrobial peptide having synergistic antibacterial effect with antibiotics on multidrug resistant bacteria, and use thereof” (priority 2016, dated 2022).
Converted amounts (≈) assume the structure as drawn. Like-named read-outs stand apart in the source and are kept apart here. Where a SMILES comes first, the peptide text is derived from it.

Legend:
[1] = system: MDRAB 12036; format: cell-based, Acinetobacter baumannii
Method in brief: (§1)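 Broth microdilution in MH medium: bacterial strains diluted to 2×10^6 CFU were mixed with equal volumes of peptide serially diluted twofold in MH medium.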

[2] = system: MDRPA 2002; format: cell-based, Pseudomonas aeruginosa
Method in brief: as §1

[3] = system: MDRPA 2003; format: cell-based, Pseudomonas aeruginosa
Method in brief: as §1

[4] = system: B. subtilis; test: microbe, parasite or virus in culture; format: cell-based, Bacillus subtilis
Method in brief: as §1

[5] = system: MDRST 8009; format: cell-based, Salmonella typhimurium; conditions: agent alone
Method in brief: as §1

[6] = system: MRSA 3114; format: cell-based, Staphylococcus aureus; conditions: 3114
Method in brief: as §1

[7] = system: MRSA 3126; format: cell-based, Staphylococcus aureus; conditions: 3126
Method in brief: as §1

[8] = system: E. coli; format: cell-based, Escherichia coli; conditions: E. coli
Method in brief: (§2)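 Antibiotic MIC came from antibiotic dilutions added to bacteria (2×10^6 CFU/ml, MH medium) already combined with peptide serially diluted 2:1 from its own MIC. Swapping the roles of the two agents gave the peptide MIC.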

[9] = system: MDREC 1229; format: cell-based, Escherichia coli
Method in brief: as §2

[10] = system: P. aeruginosa; test: microbe, parasite or virus in culture; format: cell-based, Pseudomonas aeruginosa
Method in brief: as §1

[11] = system: E. coli; test: microbe, parasite or virus in culture; format: cell-based, Escherichia coli
Method in brief: as §1

[12] = system: MDREC 1229; test: microbe, parasite or virus in culture; format: cell-based, Escherichia coli
Method in brief: as §1

[13] = system: MDRST 8007; test: Minimal inhibitory concentration (MIC), single agent; format: cell-based, Salmonella typhimurium; conditions: agent alone
Method in brief: as §1

[14] = system: MDRAB 12035; test: MIC of antibiotic during combined treatment with antimicrobial peptide; format: cell-based, Acinetobacter baumannii
Method in brief: as §2

[15] = system: MDRAB 12035; test: MIC of antimicrobial peptide during combined treatment with antibiotic; format: cell-based, Acinetobacter baumannii
Method in brief: as §2

[16] = system: A. baumannii; test: as above; format: cell-based, Acinetobacter baumannii
Method in brief: as §2

[17] = system: S. epidermidis; test: microbe, parasite or virus in culture; format: cell-based, Staphylococcus epidermidis
Method in brief: as §1

[18] = system: E. coli; test: MIC of antibiotic during combined treatment with antimicrobial peptide; format: cell-based, Escherichia coli; conditions: for Antibiotic MIC, Erythromycin / Antibiotic MIC, Linezolid / Antibiotic MIC, Vancomycin: E. coli
Method in brief: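 Antibiotic diluted in MH medium, dispensed per well with peptide; setup repeated with roles reversed; MIC read per combination.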

[19] = system: MDREC 1238; format: cell-based, Escherichia coli
Method in brief: as §1

[20] = with Erythromycin […] (Conc./MIC 1)
[21] = peptide treatment concentration 1 μg/ml
[22] = peptide treatment concentration 2 μg/ml
[23] = peptide treatment concentration 4 μg/ml
[24] = peptide treatment concentration 6 μg/ml
[25] = peptide treatment concentration 8 μg/ml
[26] = peptide treatment concentration 16 μg/ml
[27] = peptide treatment concentration 32 μg/ml
[28] = peptide treatment concentration 64 μg/ml
[29] = erythromycin 4 μg/ml (Conc./MIC 1/8)
[30] = erythromycin 8 μg/ml (Conc./MIC 1/4)
[31] = erythromycin 16 μg/ml (Conc./MIC 1/2)
[32] = erythromycin 32 μg/ml (Conc./MIC 1)
[33] = vancomycin 512 μg/ml (Conc./MIC 1/2)
[34] = vancomycin 1024 μg/ml (Conc./MIC 1)

Structure (SMILES): CC[C@H](C)[C@H](NC(=O)[C@H](CCCCN)NC(=O)[C@H](Cc1c[nH]c2ccccc12)NC(=O)[C@@H](N)CCCNC(=N)N)C(=O)N[C@@H](Cc1ccccc1)C(=O)N[C@@H](CCCCN)C(=O)N[C@@H](CCCCN)C(=O)N[C@H](C(=O)N1CCC[C@H]1C(=O)N[C@@H](CCCCN)C(=O)N[C@@H](CC(C)C)C(=O)N[C@@H](CC(C)C)C(=O)N[C@@H](Cc1c[nH]cn1)C(=O)N[C@@H](CO)C(=O)N[C@@H](C)C(=O)N[C@@H](CCCCN)C(=O)N[C@@H](CCCCN)C(=O)N[C@@H](Cc1c[nH]c2ccccc12)C(N)=O)[C@@H](C)CC [PapMA-9, RWK IFK KIP KLL HSA KKW-NH2] (H-RWKIFKKIPKLLHSAKKW-NH2; N-terminus assumed)
- Minimal inhibitory concentration MIC [1]: 64 µg/mL (≈ 27.7 µM)
- Minimal inhibitory concentration MIC [2]: 16 µg/mL (≈ 6.94 µM)
- Minimal inhibitory concentration MIC [3]: 16 µg/mL (≈ 6.94 µM)
- Minimal inhibitory concentration MIC [4]: >128 µg/mL
- Minimal inhibitory concentration MIC [5]: 64 µg/mL (≈ 27.7 µM)
- Minimal inhibitory concentration MIC [6]: >128 µg/mL
- Minimal inhibitory concentration MIC [7]: >128 µg/mL
- Peptide MIC [8, 20]: 0 µg/mL
- Peptide MIC ([8]; with Linezolid […] (Conc./MIC 1)): 0 µg/mL
- Peptide MIC ([8]; with Vancomycin 1024 μg/ml (Conc./MIC 1)): 0 µg/mL
- Peptide MIC [9, 20]: 0 µg/mL
- Peptide MIC ([9]; with Linezolid 512 μg/ml (Conc./MIC 1)): 0 µg/mL
- Minimal inhibitory concentration MIC [10]: 8 µg/mL (≈ 3.47 µM)
- Minimal inhibitory concentration MIC ([11]; 16 h): 32 µg/mL (≈ 13.9 µM)
- Antibacterial activity relative to PapMA-1 ([11]; E. coli): at least twice as high
- Minimal inhibitory concentration MIC [12]: 64 µg/mL (≈ 27.7 µM)
- Minimal inhibitory concentration MIC [13]: 64 µg/mL (≈ 27.7 µM)
- Erythromycin MIC during combined treatment with peptide [14, 21]: 16 µg/mL
- Linezolid MIC during combined treatment with peptide [14, 21]: >128 µg/mL
- Vancomycin MIC during combined treatment with peptide [14, 21]: >128 µg/mL
- Erythromycin MIC during combined treatment with peptide [14, 22]: 16 µg/mL
- Linezolid MIC during combined treatment with peptide [14, 22]: 64 µg/mL
- Vancomycin MIC during combined treatment with peptide [14, 22]: 128 µg/mL
- Erythromycin MIC during combined treatment with peptide [14, 23]: 4 µg/mL
- Linezolid MIC during combined treatment with peptide [14, 23]: 32 µg/mL
- Vancomycin MIC during combined treatment with peptide [14, 23]: 64 µg/mL
- Erythromycin MIC during combined treatment with peptide [14, 24]: 0.5 µg/mL
- Linezolid MIC during combined treatment with peptide [14, 24]: 16 µg/mL
- Vancomycin MIC during combined treatment with peptide [14, 24]: 16 µg/mL
- Erythromycin MIC during combined treatment with peptide [14, 25]: 0.25 µg/mL
- Linezolid MIC during combined treatment with peptide [14, 25]: 4 µg/mL
- Vancomycin MIC during combined treatment with peptide [14, 25]: 8 µg/mL
- Erythromycin MIC during combined treatment with peptide [14, 26]: 0.25 µg/mL
- Linezolid MIC during combined treatment with peptide [14, 26]: 4 µg/mL
- Vancomycin MIC during combined treatment with peptide [14, 26]: 8 µg/mL
- Erythromycin MIC during combined treatment with peptide [14, 27]: 0.125 µg/mL
- Linezolid MIC during combined treatment with peptide [14, 27]: 2 µg/mL
- Vancomycin MIC during combined treatment with peptide [14, 27]: 2 µg/mL
- Erythromycin MIC during combined treatment with peptide [14, 28]: 0 µg/mL
- Linezolid MIC during combined treatment with peptide [14, 28]: 0 µg/mL
- Vancomycin MIC during combined treatment with peptide [14, 28]: 0 µg/mL
- Peptide MIC during treatment with erythromycin [15, 29]: 4 µg/mL
- Peptide MIC during treatment with erythromycin [15, 30]: 4 µg/mL
- Peptide MIC during treatment with erythromycin [15, 31]: 1 µg/mL
- Peptide MIC during treatment with erythromycin [15, 32]: 0 µg/mL
- Peptide MIC during treatment with linezolid ([15]; linezolid 64 μg/ml (Conc./MIC 1/8)): 2 µg/mL
- Peptide MIC during treatment with linezolid ([15]; linezolid 512 μg/ml (Conc./MIC 1)): 0 µg/mL
- Peptide MIC during treatment with linezolid ([15]; linezolid […] (Conc./MIC 1/2)): 1 µg/mL
- Peptide MIC during treatment with linezolid ([15]; linezolid […] (Conc./MIC 1/4)): 2 µg/mL
- Peptide MIC during treatment with vancomycin [15, 33]: 1 µg/mL
- Peptide MIC during treatment with vancomycin [15, 34]: 0.25 µg/mL
- Peptide MIC during treatment with vancomycin ([15]; vancomycin […] (Conc./MIC 1/4)): 1 µg/mL
- Peptide MIC during treatment with vancomycin ([15]; vancomycin […] (Conc./MIC 1/8)): 2 µg/mL
- Peptide MIC during treatment with antibiotic [16, 29]: 4 µg/mL
- Peptide MIC during treatment with antibiotic [16, 30]: 2 µg/mL
- Peptide MIC during treatment with antibiotic [16, 31]: 2 µg/mL
- Peptide MIC during treatment with antibiotic [16, 32]: 0 µg/mL
- Peptide MIC during treatment with antibiotic ([16]; linezolid 32 μg/ml (Conc./MIC 1/8)): 4 µg/mL
- Peptide MIC during treatment with antibiotic ([16]; linezolid 64 μg/ml (Conc./MIC 1/4)): 4 µg/mL
- Peptide MIC during treatment with antibiotic ([16]; linezolid […] (Conc./MIC 1)): 0 µg/mL
- Peptide MIC during treatment with antibiotic ([16]; linezolid […] (Conc./MIC 1/2)): 2 µg/mL
- Peptide MIC during treatment with antibiotic [16, 33]: 0.25 µg/mL
- Peptide MIC during treatment with antibiotic [16, 34]: 0 µg/mL
- Peptide MIC during treatment with antibiotic ([16]; vancomycin […] (Conc./MIC 1/4)): 0.5 µg/mL
- Peptide MIC during treatment with antibiotic ([16]; vancomycin […] (Conc./MIC 1/8)): 2 µg/mL
- Minimal inhibitory concentration MIC [17]: >128 µg/mL
- Synergistic effect of antibacterial activity with existing antibiotics compared with PapMA-1 ([18]; E. coli and MDREC1229): higher level than the PapMA-1 peptide
- Antibiotic MIC, Erythromycin ([18]; erythromycin combined with peptide at 1 μg/ml): 128 µg/mL
- Antibiotic MIC, Erythromycin ([18]; erythromycin combined with peptide at 2 μg/ml): 64 µg/mL
- Antibiotic MIC, Erythromycin ([18]; erythromycin combined with peptide at 4 μg/ml): 8 µg/mL
- Antibiotic MIC, Erythromycin ([18]; erythromycin combined with peptide at 6 μg/ml): 2 µg/mL
- Antibiotic MIC, Erythromycin ([18]; erythromycin combined with peptide at 8 μg/ml): 0.5 µg/mL
- Antibiotic MIC, Erythromycin ([18]; erythromycin combined with peptide at 16 μg/ml): 0.125 µg/mL
- Antibiotic MIC, Erythromycin ([18]; erythromycin combined with peptide at 32 μg/ml): 0 µg/mL
- Antibiotic MIC, Erythromycin ([18]; erythromycin combined with peptide at 64 μg/ml): 0 µg/mL
- Antibiotic MIC, Linezolid ([18]; linezolid combined with peptide at 1 μg/ml): >128 µg/mL
- Antibiotic MIC, Linezolid ([18]; linezolid combined with peptide at 2 μg/ml): >128 µg/mL
- Antibiotic MIC, Linezolid ([18]; linezolid combined with peptide at 4 μg/ml): 16 µg/mL
- Antibiotic MIC, Linezolid ([18]; linezolid combined with peptide at 6 μg/ml): 8 µg/mL
- Antibiotic MIC, Linezolid ([18]; linezolid combined with peptide at 8 μg/ml): 4 µg/mL
- Antibiotic MIC, Linezolid ([18]; linezolid combined with peptide at 16 μg/ml): 2 µg/mL
- Antibiotic MIC, Linezolid ([18]; linezolid combined with peptide at 32 μg/ml): 0 µg/mL
- Antibiotic MIC, Linezolid ([18]; linezolid combined with peptide at 64 μg/ml): 0 µg/mL
- Antibiotic MIC, Vancomycin ([18]; vancomycin combined with peptide at 1 μg/ml): >128 µg/mL
- Antibiotic MIC, Vancomycin ([18]; vancomycin combined with peptide at 2 μg/ml): >128 µg/mL
- Antibiotic MIC, Vancomycin ([18]; vancomycin combined with peptide at 4 μg/ml): 64 µg/mL
- Antibiotic MIC, Vancomycin ([18]; vancomycin combined with peptide at 6 μg/ml): 16 µg/mL
- Antibiotic MIC, Vancomycin ([18]; vancomycin combined with peptide at 8 μg/ml): 8 µg/mL
- Antibiotic MIC, Vancomycin ([18]; vancomycin combined with peptide at 16 μg/ml): 2 µg/mL
- Antibiotic MIC, Vancomycin ([18]; vancomycin combined with peptide at 32 μg/ml): 0 µg/mL
- Antibiotic MIC, Vancomycin ([18]; vancomycin combined with peptide at 64 μg/ml): 0 µg/mL
- Minimal inhibitory concentration MIC [19]: 64 µg/mL (≈ 27.7 µM)
